System: MCF-7 breast cancer cells
Assay: Microarray gene expression analysis (Agilent whole human genome 4 x 44K; compound vs DMSO, LIMMA log2 fold change)
Assay type: cell-based
Conditions: Apoptosis genes

Cn1ncc2c(N3CCOCC3)nc(-c3cccc(O)c3)nc21 [ETP-45658]
KALRN log2FC (Gene 8997): 0.091
SOCS3 log2FC (Gene 9021): -1.264
BRSK2 log2FC (Gene 9024): -0.150
UBE2M log2FC (Gene 9040): -0.487
SART1 log2FC (Gene 9092): -0.304
DNAJA3 log2FC (Gene 9093): 0.296
RABEP1 log2FC (Gene 9135): 0.616
ARHGEF2 log2FC (Gene 9181): -0.734
DEDD log2FC (Gene 9191): -0.182
AURKB log2FC (Gene 9212): -0.212
FAIM3 log2FC (Gene 9214): -0.667
DLG5 log2FC (Gene 9231): -0.344
PNMA1 log2FC (Gene 9240): 0.386
NOG log2FC (Gene 9241): -0.420
CRLF1 log2FC (Gene 9244): -0.116
STK17B log2FC (Gene 9262): 0.460
STK17A log2FC (Gene 9263): 0.274
BCL7C log2FC (Gene 9274): -0.273
TAOK2 log2FC (Gene 9344): -0.736
SLIT2 log2FC (Gene 9353): 0.124
SLC9A3R1 log2FC (Gene 9368): -0.593
TJP2 log2FC (Gene 9414): 0.142
NTN1 log2FC (Gene 9423): -0.272
ITM2B log2FC (Gene 9445): 0.364
AIM2 log2FC (Gene 9447): -0.111
LY86 log2FC (Gene 9450): -0.441
EIF2AK3 log2FC (Gene 9451): 0.631
HAND2 log2FC (Gene 9464): -0.617
ATG5 log2FC (Gene 9474): -0.569
ROCK2 log2FC (Gene 9475): 0.291
MAPK8IP1 log2FC (Gene 9479): -0.208
SLC25A27 log2FC (Gene 9481): 0.161
PSMF1 log2FC (Gene 9491): -0.383
LITAF log2FC (Gene 9516): -0.463
EEF1E1 log2FC (Gene 9521): 0.192
BAG4 log2FC (Gene 9530): 0.066
BAG3 log2FC (Gene 9531): -0.998
EI24 log2FC (Gene 9538): -0.507
BCAR1 log2FC (Gene 9564): -0.597
BRE log2FC (Gene 9577): -0.322
RNF7 log2FC (Gene 9616): -0.220
TRAF4 log2FC (Gene 9618): -0.910
AATK log2FC (Gene 9625): 1.732
IKBKE log2FC (Gene 9641): -0.592
PPM1F log2FC (Gene 9647): -0.513
RAPGEF2 log2FC (Gene 9693): 0.863
ESPL1 log2FC (Gene 9700): 0.453
HERPUD1 log2FC (Gene 9709): 0.217
SLK log2FC (Gene 9748): 0.938
BCLAF1 log2FC (Gene 9774): 0.733
KIAA0141 log2FC (Gene 9812): 0.422
RB1CC1 log2FC (Gene 9821): 1.457
ARHGEF11 log2FC (Gene 9826): -0.194
ARHGEF17 log2FC (Gene 9828): 0.130
MELK log2FC (Gene 9833): 0.433
PSMD6 log2FC (Gene 9861): 0.300
ARNT2 log2FC (Gene 9915): -0.108
THOC1 log2FC (Gene 9984): 0.606
CASP8AP2 log2FC (Gene 9994): 0.813
SRA1 log2FC (Gene 10011): -0.924
PDCD6IP log2FC (Gene 10015): 0.516
PDCD6 log2FC (Gene 10016): -0.540
BCL2L11 log2FC (Gene 10018): 0.145
PARP2 log2FC (Gene 10038): 0.419
DNAJB6 log2FC (Gene 10049): 0.317
DNM1L log2FC (Gene 10059): 0.674
PDCD7 log2FC (Gene 10081): 0.102
PPIF log2FC (Gene 10105): -1.006
FEM1B log2FC (Gene 10116): -0.258
BCAP31 log2FC (Gene 10134): -0.393
RBM5 log2FC (Gene 10181): 0.716
RNF41 log2FC (Gene 10193): 0.235
PSME3 log2FC (Gene 10197): -1.314
DHRS2 log2FC (Gene 10202): 0.711
TOPORS log2FC (Gene 10210): 0.700
PSMD14 log2FC (Gene 10213): 0.447
SPRY2 log2FC (Gene 10253): -1.064
NET1 log2FC (Gene 10276): 0.571
UBE4B log2FC (Gene 10277): -0.652
SAP18 log2FC (Gene 10284): 0.262
TRAIP log2FC (Gene 10293): 0.639
MAEA log2FC (Gene 10296): -0.219
PAK4 log2FC (Gene 10298): -0.601
RTN3 log2FC (Gene 10313): -0.201
CITED2 log2FC (Gene 10370): 2.261
SEMA3A log2FC (Gene 10371): 0.054
DLC1 log2FC (Gene 10395): -0.918
GNB2L1 log2FC (Gene 10399): -0.052
YAP1 log2FC (Gene 10413): 0.283
CFDP1 log2FC (Gene 10428): 0.559
C1D log2FC (Gene 10438): 0.287
ACAA2 log2FC (Gene 10449): 0.222
VAV3 log2FC (Gene 10451): 2.242
STK25 log2FC (Gene 10494): 0.126
SEMA4D log2FC (Gene 10507): 0.201
MYBBP1A log2FC (Gene 10514): -0.538
CIB1 log2FC (Gene 10519): -0.090
ATG7 log2FC (Gene 10533): -0.393
HTATIP2 log2FC (Gene 10553): 0.241
ERN2 log2FC (Gene 10595): -0.829
RBCK1 log2FC (Gene 10616): -0.413
STAMBP log2FC (Gene 10617): 0.425
IVNS1ABP log2FC (Gene 10625): 0.124
TXNIP log2FC (Gene 10628): 2.131
RRAGA log2FC (Gene 10670): -0.331
PNMA2 log2FC (Gene 10687): -0.069
CHL1 log2FC (Gene 10752): 0.057
NES log2FC (Gene 10763): -0.458
PLK2 log2FC (Gene 10769): -0.887
ZMYND11 log2FC (Gene 10771): 0.411
NEK6 log2FC (Gene 10783): -0.620
NCKAP1 log2FC (Gene 10787): 0.702
ZNF268 log2FC (Gene 10795): 0.304
PPP1R13L log2FC (Gene 10848): 0.207
LILRB1 log2FC (Gene 10859): -0.164
MRPS30 log2FC (Gene 10884): 0.391
PROKR1 log2FC (Gene 10887): -0.235
PPARGC1A log2FC (Gene 10891): 0.117
MALT1 log2FC (Gene 10892): -0.183
JTB log2FC (Gene 10899): -0.124
BLCAP log2FC (Gene 10904): -0.662
EDAR log2FC (Gene 10913): -0.358
RNPS1 log2FC (Gene 10921): -0.273
FASTK log2FC (Gene 10922): -0.423
PRDX3 log2FC (Gene 10935): 0.630
MLLT11 log2FC (Gene 10962): -0.777
YWHAQ log2FC (Gene 10971): 0.450
IL24 log2FC (Gene 11009): -0.211
RIPK3 log2FC (Gene 11035): 0.042
PIM2 log2FC (Gene 11040): -0.863
DIDO1 log2FC (Gene 11083): -0.773
FAF1 log2FC (Gene 11124): 0.204
CAPN10 log2FC (Gene 11132): -0.095
NISCH log2FC (Gene 11188): 0.948
CHEK2 log2FC (Gene 11200): 0.312
AKAP13 log2FC (Gene 11214): -0.384
DDX20 log2FC (Gene 11218): 0.500
PDCD10 log2FC (Gene 11235): 0.541
GABARAP log2FC (Gene 11337): 0.197
ATF5 log2FC (Gene 22809): -1.275
PHLDA1 log2FC (Gene 22822): -2.095
CARD8 log2FC (Gene 22900): 0.190
SNW1 log2FC (Gene 22938): 0.686
TRIM32 log2FC (Gene 22954): -0.374
ACIN1 log2FC (Gene 22985): -0.352
TRIM35 log2FC (Gene 23087): 0.473
KIF1B log2FC (Gene 23095): 0.166
PSME4 log2FC (Gene 23198): 0.174
ARHGEF9 log2FC (Gene 23229): 0.258
PACS2 log2FC (Gene 23241): -0.307
MCF2L log2FC (Gene 23263): 0.118
TRIM2 log2FC (Gene 23321): 1.078
ARHGEF12 log2FC (Gene 23365): 0.173
PPP1R13B log2FC (Gene 23368): 0.098
NCSTN log2FC (Gene 23385): 0.216
ADNP log2FC (Gene 23394): 0.193
SIRT1 log2FC (Gene 23411): 1.263

From article PMC4303209, “A novel phosphatidylinositol 3-kinase (PI3K) inhibitor directs a potent FOXO-dependent, p53-independent cell cycle arrest phenotype characterized by the differential induction of a subset of FOXO-regulated genes” (Breast Cancer Research : BCR, 2014)
